# Results: patent US12435044B2, “Pyridazinone herbicides and pyridazinone intermediates used to prepare a herbicide” (FMC Corporation, priority 2018, dated 2025)
# Experiments:
# Assay type in all cases: in vivo
# [1] = test system: Canada thistle (Cirsium arvense); test: Test D postemergence controlled growth environment test
# Excerpt: (§1) Seeds of plant species selected from blackgrass (Alopecurus myosuroides), galium (catchweed bedstraw, Galium aparine), kochia (Kochia scoparia), oilseed rape (Brassica napus), barley, spring (Hordeum vulgare), wheat, spring (Triticum aestivum), oat, wild (Avena fatua), barley, winter (Hordeum vulgare) and wheat, winter (Triticum aestivum) were planted into a silt loam soil and treated preemergence with test chemicals formulated in a non-phytotoxic solvent mixture which included a surfactant.
# (§2) At the same time, plants selected from these crop and weed species and also bluegrass (annual bluegrass, Poa annua), canarygrass (littleseed canarygrass, Phalaris minor), chickweed (common chickweed, Stellaria media), bromegrass, downy (downy bromegrass, Bromus tectorum), field poppy (Papaver rhoeas), field violet (Viola arvensis), foxtail, green (Setaria viridis), deadnettle (henbit deadnettle, Lamium amplexicaule), ryegrass, Italian (Lolium multiflorum), lambsquarters (Chenopodium album), pigweed (Amaranthus retroflexus), chamomile (scentless chamomile, Matricaria inodora), Russian thistle (Salsola kali), speedwell (bird's-eye speedwell, Veronica persica), buckwheat, wild (Polygonum convolvulus), mustard, wild (Sinapis arvensis), radish, wild (Raphanus raphanistrum), windgrass (Apera spica-venti), geranium, cutleaf (Geranium dissectum) and Canada thistle (Cirsium arvense) were planted in pots containing Redi-Earth® planting medium (Scotts Company, 14111 Scottslawn Road, Marysville, Ohio 43041) comprising spaghnum peat moss, vermiculite, wetting agent and starter nutrients and treated with postemergence applications of the test chemicals formulated in the same manner. Plants ranged in height from 2 to 18 cm (1- to 4-leaf stage). Treated plants and controls were maintained in a controlled growth environment for 14 to 21 d after which time all species were compared to controls and visually evaluated. Plant response ratings, summarized in Table D, are based on a scale of 0 to 100 where 0 is no effect and 100 is complete control. A dash (-) response means no test result.
# [2] = test system: bluegrass (annual bluegrass, Poa annua); test: as above
# Excerpt: as §1, §2
# [3] = test system: bromegrass, downy (downy bromegrass, Bromus tectorum); test: as above
# Excerpt: as §1, §2
# [4] = test system: geranium, cutleaf (Geranium dissectum); test: as above
# Excerpt: as §1, §2
# [5] = test system: ryegrass, Italian (Lolium multiflorum); test: as above
# Excerpt: as §1, §2
# [6] = test system: windgrass (Apera spica-venti); test: as above
# Excerpt: as §1, §2
# [7] = test system: field bindweed (Convolvulus arvensis); test: Test E pre-/postemergence greenhouse test
# Excerpt: (§3) Seeds of plant species selected from corn (Zea mays), soybean (Glycine max), velvetleaf (Abutilon theophrasti), lambsquarters (Chenopodium album), poinsettia, wild (Euphorbia heterophylla), pigweed, palmer (Amaranthus palmeri), waterhemp (common waterhemp, Amaranthus rudis), surinam grass (Brachiaria decumbens), crabgrass, large (Digitaria sanguinalis), crabgrass, Brazil (Digitaria horizontalis), panicum, fall (Panicum dichotomiflorum), foxtail, giant (Setaria faberii), foxtail, green (Setaria viridis), goosegrass (Eleusine indica), johnsongrass (Sorghum halepense), ragweed (common ragweed, Ambrosia elatior), barnyardgrass (Echinochloa crus-galli), sandbur (southern sandbur, Cenchrus echinatus), arrowleaf sida (Sida rhombifolia), ryegrass, Italian (Lolium multiflorum), dayflower, VA (Virginia (VA) dayflower, Commelina virginica), field bindweed (Convolvulus arvensis), morningglory (Ipomoea coccinea), horseweed (Conyza canadensis), kochia (Kochia scoparia), nutsedge, yellow (Cyperus esculentus) and hairy beggarticks (Bidenspilosa), were planted into a silt loam soil and treated preemergence with test chemicals formulated in a non-phytotoxic solvent mixture which included a surfactant.
# (§4) At the same time, plants selected from these crop and weed species and also waterhemp_RES1, (ALS & Triazine resistant common waterhemp, Amaranthus rudis), and waterhemp_RES2, (ALS & HPPD resistant common waterhemp, Amaranthus rudis) were planted in pots containing Redi-Earth® planting medium (Scotts Company, 14111 Scottslawn Road, Marysville, Ohio 43041) comprising spaghnum peat moss, vermiculite, wetting agent and starter nutrients were treated with postemergence applications of test chemicals formulated in the same manner. Plants ranged in height from 2 to 18 cm for postemergence treatments (1- to 4-leaf stage). Treated plants and controls were maintained in a greenhouse for 14 to 21 d, after which time all species were compared to controls and visually evaluated. Plant response ratings, summarized in Table E, are based on a scale of 0 to 100 where 0 is no effect and 100 is complete control. A dash (-) response means no test result.
# [8] = test system: foxtail, green (Setaria viridis); test: Test E pre-/postemergence greenhouse test; settings: Preemergence
# Excerpt: as §3, §4
# [9] = test system: goosegrass (Eleusine indica); test: Test E pre-/postemergence greenhouse test; settings: Preemergence
# Excerpt: as §3, §4
# [10] = test system: johnsongrass (Sorghum halepense); test: Test E pre-/postemergence greenhouse test; settings: Preemergence
# Excerpt: as §3, §4
# [11] = test system: morningglory (Ipomoea coccinea); test: Test E pre-/postemergence greenhouse test; settings: Preemergence
# Excerpt: as §3, §4
# [12] = test system: poinsettia, wild (Euphorbia heterophylla); test: Test E pre-/postemergence greenhouse test
# Excerpt: as §3, §4
# [13] = test system: ryegrass, Italian (Lolium multiflorum); test: Test E pre-/postemergence greenhouse test
# Excerpt: as §3, §4
compound,measurement,setting,value
"Cc1ccc2ccc(C)c(-c3c(O)c(Cl)nn(C)c3=O)c2c1 [Cpd. No. 20, 6-chloro-4-(2,7-dimethyl-1-naphthalenyl)-5-hydroxy-2-methyl-3(2H)-pyridazinone]","Plant response rating, Canada Thistle",[1]; 16 g ai/ha,75
same,"Plant response rating, Canada Thistle",[1]; 31 g ai/ha,85
same,"Plant response rating, Canada Thistle",[1]; 62 g ai/ha,95
same,"Plant response rating, Canada Thistle",[1]; 125 g ai/ha,95
same,"Plant response rating, Bluegrass",[2]; 16 g ai/ha,0
same,"Plant response rating, Bluegrass",[2]; 31 g ai/ha,5
same,"Plant response rating, Bluegrass",[2]; 62 g ai/ha,5
same,"Plant response rating, Bluegrass",[2]; 125 g ai/ha,10
same,"Plant response rating, Bromegrass, Downy",[3]; 16 g ai/ha,0
same,"Plant response rating, Bromegrass, Downy",[3]; 31 g ai/ha,5
same,"Plant response rating, Bromegrass, Downy",[3]; 62 g ai/ha,10
same,"Plant response rating, Bromegrass, Downy",[3]; 125 g ai/ha,25
same,"Plant response rating, Geranium, Cutleaf",[4]; 16 g ai/ha,65
same,"Plant response rating, Geranium, Cutleaf",[4]; 31 g ai/ha,75
same,"Plant response rating, Geranium, Cutleaf",[4]; 62 g ai/ha,80
same,"Plant response rating, Geranium, Cutleaf",[4]; 125 g ai/ha,85
same,"Plant response rating, Ryegrass, Italian",[5]; 16 g ai/ha,65
same,"Plant response rating, Ryegrass, Italian",[5]; 31 g ai/ha,75
same,"Plant response rating, Ryegrass, Italian",[5]; 62 g ai/ha,80
same,"Plant response rating, Ryegrass, Italian",[5]; 125 g ai/ha,90
same,"Plant response rating, Windgrass",[6]; 16 g ai/ha,15
same,"Plant response rating, Windgrass",[6]; 31 g ai/ha,25
same,"Plant response rating, Windgrass",[6]; 62 g ai/ha,50
same,"Plant response rating, Windgrass",[6]; 125 g ai/ha,75
same,"Plant response rating, Field Bindweed","[7]; Postemergence, 16 g ai/ha",75
same,"Plant response rating, Field Bindweed","[7]; Postemergence, 31 g ai/ha",90
same,"Plant response rating, Field Bindweed","[7]; Postemergence, 62 g ai/ha",90
same,"Plant response rating, Field Bindweed","[7]; Postemergence, 125 g ai/ha",90
same,"Plant response rating, Field Bindweed","[7]; Preemergence, 16 g ai/ha",5
same,"Plant response rating, Field Bindweed","[7]; Preemergence, 31 g ai/ha",85
same,"Plant response rating, Field Bindweed","[7]; Preemergence, 62 g ai/ha",90
same,"Plant response rating, Field Bindweed","[7]; Preemergence, 125 g ai/ha",100
same,"Plant response rating, Foxtail, Green",[8]; 16 g ai/ha,35
same,"Plant response rating, Foxtail, Green",[8]; 31 g ai/ha,80
same,"Plant response rating, Foxtail, Green",[8]; 62 g ai/ha,100
same,"Plant response rating, Foxtail, Green",[8]; 125 g ai/ha,100
same,"Plant response rating, Goosegrass",[9]; 16 g ai/ha,0
same,"Plant response rating, Goosegrass",[9]; 31 g ai/ha,0
same,"Plant response rating, Goosegrass",[9]; 62 g ai/ha,30
same,"Plant response rating, Goosegrass",[9]; 125 g ai/ha,75
same,"Plant response rating, Johnsongrass",[10]; 16 g ai/ha,0
same,"Plant response rating, Johnsongrass",[10]; 31 g ai/ha,0
same,"Plant response rating, Johnsongrass",[10]; 125 g ai/ha,50
same,"Plant response rating, Morningglory",[11]; 16 g ai/ha,10
same,"Plant response rating, Morningglory",[11]; 31 g ai/ha,20
same,"Plant response rating, Morningglory",[11]; 62 g ai/ha,60
same,"Plant response rating, Morningglory",[11]; 125 g ai/ha,100
same,"Plant response rating, Poinsettia, Wild","[12]; Postemergence, 16 g ai/ha",20
same,"Plant response rating, Poinsettia, Wild","[12]; Postemergence, 31 g ai/ha",50
same,"Plant response rating, Poinsettia, Wild","[12]; Postemergence, 62 g ai/ha",40
same,"Plant response rating, Poinsettia, Wild","[12]; Postemergence, 125 g ai/ha",50
same,"Plant response rating, Poinsettia, Wild","[12]; Preemergence, 16 g ai/ha",0
same,"Plant response rating, Poinsettia, Wild","[12]; Preemergence, 31 g ai/ha",0
same,"Plant response rating, Poinsettia, Wild","[12]; Preemergence, 62 g ai/ha",0
same,"Plant response rating, Poinsettia, Wild","[12]; Preemergence, 125 g ai/ha",0
same,"Plant response rating, Ryegrass, Italian","[13]; Postemergence, 16 g ai/ha",70
same,"Plant response rating, Ryegrass, Italian","[13]; Postemergence, 31 g ai/ha",80
same,"Plant response rating, Ryegrass, Italian","[13]; Postemergence, 62 g ai/ha",85
same,"Plant response rating, Ryegrass, Italian","[13]; Postemergence, 125 g ai/ha",90
same,"Plant response rating, Ryegrass, Italian","[13]; Preemergence, 16 g ai/ha",0
same,"Plant response rating, Ryegrass, Italian","[13]; Preemergence, 31 g ai/ha",25
same,"Plant response rating, Ryegrass, Italian","[13]; Preemergence, 62 g ai/ha",98
same,"Plant response rating, Ryegrass, Italian","[13]; Preemergence, 125 g ai/ha",95
